Active and inactive are the calls of the source.

The target of assay [1] is T1, Endoribonuclease toxin MazF (Escherichia coli K-12, UniProt P0AE70).
T1 sequence (P0AE70 whole entry): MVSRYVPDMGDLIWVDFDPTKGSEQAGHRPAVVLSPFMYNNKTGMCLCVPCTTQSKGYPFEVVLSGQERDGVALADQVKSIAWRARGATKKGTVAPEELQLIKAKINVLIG
Kind of assay: MazF toxin RNase activators, dose response, biochemical, fluorescence, single-stranded RNA substrate, uHTS hits (AID 588481). The format is functional.

For assay [2], the target named is T1, Endoribonuclease toxin MazF. Briefly: fluorescent RNA oligo signal without MazF, dose response, counter-screen for MazEF activator project, biochemical, fluorescence, single-stranded RNase substrate (AID 588502). It is filed as functional. On the technique in general: A counterscreen serves to expose hits that act by an unwanted route or on another target.
Assay [3] deals with T2, Insulin-degrading enzyme (Homo sapiens, UniProt P14735).
T2 sequence (P14735 whole entry): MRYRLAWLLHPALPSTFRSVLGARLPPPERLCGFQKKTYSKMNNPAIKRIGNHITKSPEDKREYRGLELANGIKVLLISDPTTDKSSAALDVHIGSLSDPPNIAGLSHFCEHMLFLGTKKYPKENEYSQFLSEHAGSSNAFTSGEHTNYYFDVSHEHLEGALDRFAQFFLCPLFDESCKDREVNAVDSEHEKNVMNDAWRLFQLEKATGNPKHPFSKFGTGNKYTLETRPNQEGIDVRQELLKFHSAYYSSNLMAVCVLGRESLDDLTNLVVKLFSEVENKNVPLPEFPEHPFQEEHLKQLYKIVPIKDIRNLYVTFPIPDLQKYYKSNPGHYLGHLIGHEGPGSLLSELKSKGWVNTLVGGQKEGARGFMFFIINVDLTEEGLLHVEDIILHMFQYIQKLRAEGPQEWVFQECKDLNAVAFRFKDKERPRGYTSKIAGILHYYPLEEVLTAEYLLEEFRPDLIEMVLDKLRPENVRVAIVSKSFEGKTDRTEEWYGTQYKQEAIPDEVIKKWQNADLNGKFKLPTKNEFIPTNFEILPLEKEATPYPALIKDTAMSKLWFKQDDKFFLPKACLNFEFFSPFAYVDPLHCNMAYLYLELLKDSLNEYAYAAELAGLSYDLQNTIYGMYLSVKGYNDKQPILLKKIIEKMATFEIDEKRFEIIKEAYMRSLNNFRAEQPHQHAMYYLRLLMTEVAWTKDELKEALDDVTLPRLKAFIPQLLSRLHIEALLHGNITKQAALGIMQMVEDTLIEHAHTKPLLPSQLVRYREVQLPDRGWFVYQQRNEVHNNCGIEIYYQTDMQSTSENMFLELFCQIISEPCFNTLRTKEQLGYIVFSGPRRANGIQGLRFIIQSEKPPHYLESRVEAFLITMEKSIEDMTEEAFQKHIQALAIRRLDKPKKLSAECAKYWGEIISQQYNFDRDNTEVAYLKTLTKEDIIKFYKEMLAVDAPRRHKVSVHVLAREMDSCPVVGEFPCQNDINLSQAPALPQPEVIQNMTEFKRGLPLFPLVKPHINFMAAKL
Kind of assay: activators of endogenous IDE in HEK cells, dose response, cell-based, fluorescence polarization (AID 588439). The format is functional. (In general: Fluorescence polarisation rises when a labelled molecule tumbles more slowly, as on binding a larger partner.)

Assay [4] has as its system HEK293. Briefly: optical interference in Abeta FP readout, dose response, artefact control for IDE activator project, biochemical, fluorescence polarization (AID 588442). It is filed as functional, cell-based. Particulars: Homo sapiens.
In assay [5] the test system is HEK293. Kind of assay: HEK cell cytotoxicity by LDH release, dose response, cytotoxicity control for IDE activator project, fluorescence, HEK cells (AID 588440).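 Further: cytotoxicity by LDH release measuring loss of membrane integrity.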 The format is functional, cell-based. Particulars: Homo sapiens. For orientation: Release of lactate dehydrogenase indicates damage to the cell membrane.
For assay [6], the target named is T2, Insulin-degrading enzyme. Kind of assay: activators of recombinant IDE enzyme, dose response, counter-screen for IDE activator project, biochemical, fluorescence polarization (AID 588681).
The target of assay [7] is T3, Zinc finger protein mex-5 (Caenorhabditis elegans, UniProt Q9XUB2).
T3 sequence (Q9XUB2 whole entry): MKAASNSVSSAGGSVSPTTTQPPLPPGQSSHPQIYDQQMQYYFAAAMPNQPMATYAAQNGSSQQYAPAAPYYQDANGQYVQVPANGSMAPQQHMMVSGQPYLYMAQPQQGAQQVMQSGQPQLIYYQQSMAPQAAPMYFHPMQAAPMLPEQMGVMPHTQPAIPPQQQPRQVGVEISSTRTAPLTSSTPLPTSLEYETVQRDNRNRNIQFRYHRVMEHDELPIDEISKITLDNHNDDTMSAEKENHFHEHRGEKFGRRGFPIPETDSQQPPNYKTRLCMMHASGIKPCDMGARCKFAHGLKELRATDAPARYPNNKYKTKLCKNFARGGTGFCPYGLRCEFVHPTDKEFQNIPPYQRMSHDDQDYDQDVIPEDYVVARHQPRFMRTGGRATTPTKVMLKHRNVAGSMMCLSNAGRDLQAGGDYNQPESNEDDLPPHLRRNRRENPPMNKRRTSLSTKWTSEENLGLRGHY
Briefly: MEX-5/TCR-2 RNA interaction inhibitors, dose response, biochemical, C. elegans, fluorescence polarization (AID 1960).

A short description of assay [8]: cells. It is filed as functional.
Assay [9] addresses T4, RNA-binding protein pos-1 (Caenorhabditis elegans, UniProt G5EF15).
T4 sequence (G5EF15 whole entry): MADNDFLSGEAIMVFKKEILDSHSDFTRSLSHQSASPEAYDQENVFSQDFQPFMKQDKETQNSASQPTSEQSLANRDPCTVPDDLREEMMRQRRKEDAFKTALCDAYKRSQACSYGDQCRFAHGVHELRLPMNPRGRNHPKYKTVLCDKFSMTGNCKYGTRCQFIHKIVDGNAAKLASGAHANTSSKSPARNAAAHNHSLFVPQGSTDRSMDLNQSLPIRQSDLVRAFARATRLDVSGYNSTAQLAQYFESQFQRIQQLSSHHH
Briefly: inhibitors of POS-1/mex-3 RNA binding, dose response, biochemical, fluorescence polarization (AID 1964).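 Further: purified POS-1 fused to maltose binding protein made in E. coli; potency of compounds blocking POS-1 binding to fluorescent RNA.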

The subject of assay [10] is Streptococcus sp. 'group A'. Kind of assay: growth inhibition of control SK(-) GAS strain, dose response, counter-screen for streptokinase expression inhibitor project, luminescence, kanamycin, BacTiterGlo, confirmation (AID 1900). It is filed as functional, organism-based.
The test system of assay [11] is Streptococcus. Briefly: Group A Streptococcus viability loss, dose response, counter-screen for streptokinase expression inhibitor project, luminescence, BacTiterGlo (AID 1915).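 Further: potency for reduction of bacterial viability or growth.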 The format is functional, organism-based.
Assay [12] deals with T5, Streptokinase A (Streptococcus pyogenes serotype M1, UniProt P10520).
T5 sequence (P10520 whole entry): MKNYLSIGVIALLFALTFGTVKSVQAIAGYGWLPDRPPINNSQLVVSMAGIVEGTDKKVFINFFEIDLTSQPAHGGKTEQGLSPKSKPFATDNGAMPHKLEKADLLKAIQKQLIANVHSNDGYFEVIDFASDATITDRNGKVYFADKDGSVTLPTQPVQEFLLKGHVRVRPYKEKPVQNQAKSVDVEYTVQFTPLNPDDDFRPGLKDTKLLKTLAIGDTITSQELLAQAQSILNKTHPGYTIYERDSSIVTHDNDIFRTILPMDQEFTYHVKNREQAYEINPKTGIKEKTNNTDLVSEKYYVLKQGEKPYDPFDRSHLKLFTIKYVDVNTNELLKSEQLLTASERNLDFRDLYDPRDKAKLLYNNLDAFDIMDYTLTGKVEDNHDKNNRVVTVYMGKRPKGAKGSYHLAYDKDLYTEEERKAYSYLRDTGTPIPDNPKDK
Briefly: S. pyogenes streptokinase expression inhibitors, potency, dose response, plasminogen activation absorbance, OD405 (AID 1914).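 Further: secreted streptokinase activity via plasminogen activation per viability signal from cell pellet.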 It is filed as functional, Streptococcus pyogenes M1 GAS.

The subject of assay [13] is INS1. Briefly: beta cell apoptosis inhibitors, cytokine rescue, dose response, luminescence, retest (AID 449756).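 Further: cell death triggered by IL-1 beta plus TNF-alpha plus IFN-gamma mixture; protective hits raise ATP signal compared with cytokine alone wells.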 The format is functional, cell-based. The note with it: Rattus norvegicus.
Assay [14] has as its target T6, Ubiquitin-conjugating enzyme E2 N (Homo sapiens, UniProt P61088).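 Further: Dose-response confirmation in a TR-FRET assay detecting UBC13-driven polyubiquitin chain formation, inhibition measured.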
T6 sequence (P61088 whole entry): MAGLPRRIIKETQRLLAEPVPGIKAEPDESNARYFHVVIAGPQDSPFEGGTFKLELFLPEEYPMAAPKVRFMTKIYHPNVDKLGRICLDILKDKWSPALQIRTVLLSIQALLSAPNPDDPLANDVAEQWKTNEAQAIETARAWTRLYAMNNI
The format is functional.

In the case of `O=[N+]([O-])c1ccc(S(=O)(=O)N[N-][C+]2CCCCC2)cc1`, the figures for the EC50 in [1] and in assay [2] were > 99 µM (inactive) and 7.03 µM (active), respectively.
As to `O=C(c1ccccc1)N1CCN(c2ccc([N+](=O)[O-])c(NCc3cccnc3)c2)CC1`, the EC50 in [3], in assay [4] and in assay [6] was > 54.7 µM (inactive) each time. For the same molecule, the IC50 in assay [5] was > 89.2 µM (inactive).
For the molecule `O=[N+]([O-])c1ccc(Nc2ccccc2O)c2nonc12`, the EC50 was 28.2 µM (active) in assay [7], > 99 µM (inactive) in [1], 24.4 µM (active) in assay [9] and > 99 µM (inactive) in assay [2]. In addition, the IC50 in assay [8] is 5.81 µM (active).
With `NC(=O)c1ccc(NC(=O)COC(=O)c2c3c(nc4ccccc24)/C(=C\c2ccc4c(c2)OCO4)CCC3)cc1`, the EC50 in [10] is 13.6 µM (active); in assay [11], 140 µM (active); in assay [3], > 54.7 µM (inactive); in assay [12], > 150 µM (not active); in assay [4], > 54.7 µM (inactive); in assay [6], > 54.7 µM (inactive). Besides, in assay [5], the IC50 is > 89.2 µM (inactive).
On to `CCc1cc(Cn2nc(C(=O)O)cc2-c2ccccc2)on1`, for which the EC50 in [3], in [4] and in assay [6] was > 54.7 µM (inactive) in each case. Moreover, the IC50 in [5] is > 89.3 µM (inactive).
`COC(=O)C1=C(C)N(Cc2ccccc2)C(NCc2cccc(C(F)(F)F)c2)=N[C@H]1c1cccc(C(F)(F)F)c1`: in assay [13], the concentration at half-maximal activity (AC50) was 5.53 µM (active). Also, the 50% effective concentration (EC50) in assay [3] is > 6.08 µM (active); in assay [4] it was > 54.7 µM (inactive); in assay [6], > 54.7 µM (inactive). The IC50 in [14] is > 20 µM (inactive); in assay [5] it was 13.6 µM (inactive).

The EC50 is the concentration at which the effect is half-maximal. One may read the IC50 as the concentration at which inhibition is half-maximal. By AC50 is commonly meant the midpoint of the concentration-response curve, whichever way the signal moves.

Values taken from ChEMBL document CHEMBL1201862, “PubChem BioAssay data set” (2004).
